Results on six compounds are retold here after patent US20240415869A1, “COMPOSITIONS, SYSTEMS, AND METHODS FOR TREATING CANCER USING TUMOR TREATING FIELDS (TTFIELDS) AND THIOREDOXIN/GLUTATHIONE INHIBITORS” (Novocure GmbH G, priority 2023, published 2024).

pEC50, pIC50, pKi: −log10 of the molar value.

Data set [1] relates to cancer cells. The conditions noted are these: piperlongumine combined with erastin; cited from earlier work.
The target in data set [2] is T1, glutathione peroxidase 4 (GPX4) (Homo sapiens, UniProt P36969).
T1 sequence (P36969 1-197): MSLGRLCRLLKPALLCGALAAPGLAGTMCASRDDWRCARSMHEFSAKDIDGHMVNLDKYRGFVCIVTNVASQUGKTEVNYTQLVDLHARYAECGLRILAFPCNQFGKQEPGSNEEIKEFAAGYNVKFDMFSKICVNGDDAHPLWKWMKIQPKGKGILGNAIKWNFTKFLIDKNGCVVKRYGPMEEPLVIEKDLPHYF
The conditions noted are these: selective and covalent inhibitor; cited from earlier work.

The target in data set [3] is T2, cytosolic thioredoxin reductase 1 (TXNRD1) (Homo sapiens, UniProt Q16881).
T2 sequence (Q16881 151-649 limits assumed): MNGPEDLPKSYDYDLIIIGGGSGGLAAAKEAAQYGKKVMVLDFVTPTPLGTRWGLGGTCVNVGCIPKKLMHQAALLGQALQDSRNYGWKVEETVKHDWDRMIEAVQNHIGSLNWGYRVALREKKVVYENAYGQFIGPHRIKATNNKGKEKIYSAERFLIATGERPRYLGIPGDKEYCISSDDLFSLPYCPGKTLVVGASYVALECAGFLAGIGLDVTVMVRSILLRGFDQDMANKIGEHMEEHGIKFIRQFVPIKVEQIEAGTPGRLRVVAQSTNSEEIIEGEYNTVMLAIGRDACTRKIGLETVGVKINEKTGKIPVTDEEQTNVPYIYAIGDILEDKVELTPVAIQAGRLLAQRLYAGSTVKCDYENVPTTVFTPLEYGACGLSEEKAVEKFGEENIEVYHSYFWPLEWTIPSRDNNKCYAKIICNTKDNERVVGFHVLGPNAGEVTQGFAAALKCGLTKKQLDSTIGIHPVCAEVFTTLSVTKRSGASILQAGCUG
The conditions noted are these: irreversible inhibitor; cited from earlier work.

Data set [4] relates to mitochondrial toxicity. The conditions noted are these: cited from earlier work.
Data set [5] deals with GBM cell lines and GSCs. The conditions noted are these: cited from earlier work.
Data set [6] concerns GBM cell lines. The conditions noted are these: cited from earlier work.
Data set [7] relates to glioblastoma stem cells (GSCs). The conditions noted are these: cited from earlier work.
Data set [8] relates to glioblastoma stem cells (GSCs). The data set is described as follows: Auranofin plus TTFields in glioblastoma stem cells (Example 2). It counts as cell-based. The conditions noted are these: combined with TTFields. The method, then:
In vitro—To assess the effect of this trimodal therapy, GSCs are exposed to AU (auranofin, 0.50 μM), RT (3 Gy), TTFields, TTFields+AU, TTFields+RT, and the combination of all three treatments (AU+RT+TTFields). The GSCs are assessed for the following: (i) a neurosphere formation assay; (ii) ROS Intracellular levels; (iii) MitoTracker™ assessment of mitochondrial membrane potential; and (iv) TrXR1 and GSH activity assays.
In vivo—To further investigate the effect of ROS-inducing trimodal therapy (RT+AU+TTFields) in vivo, subcutaneous injections of GSCs 1123S and 528 stably transduced with luciferase are performed. GCSs are injected (3×10^5 cells 10 μl) to the right flank of mice. Treatment is started when tumors can be visualized by BLI upon injection of D-luciferin substrate. Blood is collected to monitor potential toxicities. The tumor is exposed to snap-freezing and then processed for WB and for tissue formalin fixation for further IHC analysis of p53, MGMT, and TrxR1-associated genes.

Data set [9] relates to GSCs and GBM cell lines. The conditions noted are these: lower IC50s for GSCs compared to GBM cell lines; cited from earlier work.
The target in data set [10] is T3, wild-type human TrxR1 (Homo sapiens, UniProt Q16881).
T3 sequence (Q16881 151-649 limits assumed): T2 sequence (Q16881 151-649 limits assumed)
The conditions noted are these: cited from earlier work.

Data set [11] has as its target T4, glutathione reductase (Homo sapiens, UniProt P00390).
T4 sequence (P00390 44-522): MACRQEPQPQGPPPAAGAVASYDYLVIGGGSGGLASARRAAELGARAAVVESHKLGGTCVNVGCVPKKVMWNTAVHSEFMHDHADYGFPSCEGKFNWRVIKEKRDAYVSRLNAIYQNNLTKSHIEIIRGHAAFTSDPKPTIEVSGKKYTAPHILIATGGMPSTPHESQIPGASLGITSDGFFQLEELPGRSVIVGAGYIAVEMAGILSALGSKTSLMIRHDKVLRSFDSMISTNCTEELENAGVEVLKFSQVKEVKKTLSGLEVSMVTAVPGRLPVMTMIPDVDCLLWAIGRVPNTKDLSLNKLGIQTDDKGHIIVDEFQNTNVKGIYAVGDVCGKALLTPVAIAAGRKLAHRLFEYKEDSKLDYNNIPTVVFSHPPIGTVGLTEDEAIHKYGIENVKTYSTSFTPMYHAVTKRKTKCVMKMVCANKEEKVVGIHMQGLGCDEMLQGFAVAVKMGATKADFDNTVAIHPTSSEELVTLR
The conditions noted are these: irreversible inhibitor; cited from earlier work.

For orientation: pEC50 means the EC50 on a negative log10 scale, so that one unit is a factor of ten. Broadly, the pIC50 is −log10 of the IC50, conventionally taken in molar units. By pKi is commonly meant −log10 of the Ki, conventionally taken in molar units.

In the case of `COc1cc(/C=C/C(=O)N2CCC=CC2=O)cc(OC)c1OC` [piperlongumine], the “effect of combination over either treatment alone” value in data set [1] is recorded as “synergistic effect”.

With `Cc1onc(C(=O)N2CCN(C(c3ccc(Cl)cc3)c3ccc(Cl)cc3)CC2)c1[N+](=O)[O-]` [ML-210], the pEC50 in data set [2] is 7.52.

In the case of `COc1ccc([N+](=O)[O-])c(S(=O)(=O)c2ccc(Cl)cc2)n1` [TRi-1], the pIC50 in data set [3] was 7.92. Besides, the mitochondrial toxicity result in data set [4] is listed as “little mitochondrial toxicity for anticancer therapy”.

With `CC(=O)OC[C@H]1O[C@@H]([S-])[C@H](OC(C)=O)[C@@H](OC(C)=O)[C@@H]1OC(C)=O.CCP(CC)CC.[Au+]` [Auranofin], in data set [5] (GBM cell lines and GSCs, auranofin alone), the “intracellular ROS” value was “significantly increases”. Further, the “ROS, combination with radiation therapy” value in data set [5] (GSCs, auranofin with RT) is reported as “synergistically increases”. Further, the clonogenic potential result in data set [6] is on record as “decreased”. Further, the neurosphere formation ability result in [7] is reported as “decreased”. In data set [8], the “effect of combination of Auranofin and TTFields” value is recorded as “synergistic effect”. The cell survival result in data set [9] was “decreased”.

Regarding `O=c1c2ccccc2[se]n1CCn1[se]c2ccccc2c1=O` [Ethaselen, 1,2-[bis(1,2-benzisoselenazolone-3 (2H)-ketone)]ethane], the pIC50 in [10] was 6.30.

On to `N[C@@H](CCC(=O)N[C@@H](CSc1ccc([N+](=O)[O-])cc1[N+](=O)[O-])C(=O)NCC(=O)O)C(=O)O` [(2,4-Dinitrophenyl)glutathione, S-(2,4-Dinitrophenyl)glutathione], for which, in [11], the negative-log Ki (pKi) is 4.52.
